Values joined by “and” are separate entries in the source; they are usually repeats but may differ in a detail not shown here. Equal values may be shown once. Toxic doses and inconclusive results are not listed.

From PubChem BioAssay AID256 (DTP/NCI, 2004) come the findings set out here.

The test relates to CD2F1 mice, L1210 leukemia ip, survival T/C. Put plainly: NCI In Vivo Anticancer Drug Screen. Data for tumor model L1210 Leukemia (intraperitoneal) in CD2F1 (CDF1) mice. The conditions noted are these: higher = longer survival. In outline:
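Transplantable tumor in mice; compound-treated vs vehicle-treated groups. Read-out = treated/control ratio of the measured endpoint.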

Setting [1] is: endpoint: mean survival time, dose: 100.0 mg/kg/injection, schedule: Q04DX002 (ip), vehicle: saline with Tween-80.
[2] abbreviates: endpoint: mean survival time, dose: 200.0 mg/kg/injection, schedule: Q04DX002 (ip), vehicle: saline with Tween-80.
Setting [3] is: endpoint: mean survival time, dose: 400.0 mg/kg/injection, schedule: Q04DX002 (ip), vehicle: saline with Tween-80.
[4] abbreviates: endpoint: mean survival time, dose: 50.0 mg/kg/injection, schedule: Q01DX009 (ip), vehicle: saline.
The mark [5] stands for this setting: endpoint: mean survival time, dose: 100.0 mg/kg/injection, schedule: Q01DX009 (ip), vehicle: saline.
Where [6] appears, read: endpoint: mean survival time, dose: 100.0 mg/kg/injection, schedule: Q01DX009 (ip), vehicle: saline with Tween-80.
Where [7] appears, read: endpoint: mean survival time, dose: 200.0 mg/kg/injection, schedule: Q01DX009 (ip), vehicle: saline.
The mark [8] stands for this setting: endpoint: mean survival time, dose: 200.0 mg/kg/injection, schedule: Q01DX009 (ip), vehicle: saline with Tween-80.
The mark [9] stands for this setting: endpoint: mean survival time, dose: 400.0 mg/kg/injection, schedule: Q01DX009 (ip), vehicle: saline with Tween-80.
Setting [10] is: endpoint: mean survival time, dose: 100.0 mg/kg/injection, schedule: Q04DX003 (ip), vehicle: saline with Tween-80.
Setting [11] is: endpoint: mean survival time, dose: 200.0 mg/kg/injection, schedule: Q04DX003 (ip), vehicle: saline with Tween-80.

Turning to `CC1=C(C#[N+][O-])C(C)(C)CCC1`, the T/C is 102 % of control (endpoint: mean survival time, dose: 75.0 mg/kg/injection, schedule: Q01DX001 (ip), vehicle: other); 97 % of control (endpoint: mean survival time, dose: 150.0 mg/kg/injection, schedule: Q01DX001 (ip), vehicle: other); 105 % of control (endpoint: mean survival time, dose: 300.0 mg/kg/injection, schedule: Q01DX001 (ip), vehicle: other).

Consider `O=C(CCBr)c1ccc(Cl)cc1`, for which, for the setting “endpoint: mean survival time, dose: 100.0 mg/kg/injection, schedule: Q01DX009 (ip), vehicle: saline sonified”, the T/C was 97 % of control.

With `CCCC(=O)/C=C\c1ccccc1`, the T/C (endpoint: mean survival time, dose: 50.0 mg/kg/injection, schedule: Q04DX002 (ip), vehicle: saline with Tween-80) was 102 % of control; the T/C under setting [1] was 102 % of control; the T/C under setting [2] is 91 % of control; the T/C under setting [3] is 94 % of control.

As for `CO[C@H]1C[C@](C)(O)Cc2cc3c(c(O)c21)C(=O)c1c(O)cc2c(c1C3=O)O[C@@H]1O[C@@]2(C)[C@H](O)[C@@H](N(C)C)[C@@H]1O`, the T/C runs as follows: (endpoint: mean survival time, dose: 0.78 mg/kg/injection, schedule: Q01DX009 (ip), vehicle: other) 123 % of control and 112 % of control; (endpoint: mean survival time, dose: 3.12 mg/kg/injection, schedule: Q01DX009 (ip), vehicle: other) 117 % of control; (endpoint: mean survival time, dose: 3.13 mg/kg/injection, schedule: Q01DX009 (ip), vehicle: other) 151 % of control; (endpoint: mean survival time, dose: 3.13 mg/kg/injection, schedule: Q01DX009 (oral), vehicle: other) 112 % of control; (endpoint: mean survival time, dose: 3.13 mg/kg/injection, schedule: Q01DX009 (oral), vehicle: saline) 102 % of control; (endpoint: mean survival time, dose: 6.25 mg/kg/injection, schedule: Q01DX009 (oral), vehicle: other) 116 % of control. For the same compound, the T/C is, setting by setting: (endpoint: mean survival time, dose: 6.25 mg/kg/injection, schedule: Q01DX009 (oral), vehicle: saline) 116 % of control; (endpoint: mean survival time, dose: 12.5 mg/kg/injection, schedule: Q01DX009 (oral), vehicle: other) 153 % of control; (endpoint: mean survival time, dose: 25.0 mg/kg/injection, schedule: Q01DX009 (oral), vehicle: other) 208 % of control; (endpoint: mean survival time, dose: 25.0 mg/kg/injection, schedule: Q01DX009 (oral), vehicle: saline) 183 % of control; (endpoint: mean survival time, dose: 50.0 mg/kg/injection, schedule: Q01DX009 (oral), vehicle: other) 102 % of control; (endpoint: mean survival time, dose: 50.0 mg/kg/injection, schedule: Q01DX009 (oral), vehicle: saline) 168 % of control. Also, the T/C (endpoint: median survival time, dose: 6.7 mg/kg/injection, schedule: Q01DX009 (ip), vehicle: other) was 197 % of control and 225 % of control; the T/C (endpoint: median survival time, dose: 10.0 mg/kg/injection, schedule: Q01DX009 (ip), vehicle: other) is 208 % of control and 250 % of control; the T/C (endpoint: median survival time, dose: 15.0 mg/kg/injection, schedule: Q01DX009 (ip), vehicle: other) is 302 % of control and 332 % of control; the T/C (endpoint: median survival time, dose: 22.5 mg/kg/injection, schedule: Q01DX009 (ip), vehicle: other) was 152 % of control and 169 % of control.

For `C[n+]1cccc(CCc2ccc[n+](C)c2)c1`, the T/C is, setting by setting: under setting [4], 92 % of control; under setting [5], 104 % of control.

Consider `OCc1ccc[n+](CCc2c[nH]c3ccccc23)c1`, for which the T/C by setting is: (endpoint: mean survival time, dose: 50.0 mg/kg/injection, schedule: Q01DX009 (ip), vehicle: saline with Tween-80) 104 % of control; under setting [6], 95 % of control.

`CC(C)NC(=S)NC1=CCNN1c1ccccc1`: the T/C under setting [1] was 100 % of control, the T/C under setting [2] is 88 % of control and the T/C under setting [3] was 88 % of control.

Consider `CC(C)(CO)NC(=O)CCO`, for which the T/C under setting [5] was 101 % of control; the T/C (endpoint: mean survival time, dose: 100.0 mg/kg/injection, schedule: Q04DX003 (ip), vehicle: saline) is 97 % of control; the T/C under setting [7] was 103 % of control; the T/C (endpoint: mean survival time, dose: 200.0 mg/kg/injection, schedule: Q04DX003 (ip), vehicle: saline) was 98 % of control; the T/C (endpoint: mean survival time, dose: 400.0 mg/kg/injection, schedule: Q01DX009 (ip), vehicle: saline) is 104 % of control; the T/C (endpoint: mean survival time, dose: 400.0 mg/kg/injection, schedule: Q04DX003 (ip), vehicle: saline) is 101 % of control.

For the compound `C=C1C(=O)OCC2(CC)CCCCC12` (centres undefined), the T/C is 94 % of control (endpoint: mean survival time, dose: 5.0 mg/kg/injection, schedule: Q01DX009 (ip), vehicle: water); 88 % of control (endpoint: mean survival time, dose: 10.0 mg/kg/injection, schedule: Q01DX009 (ip), vehicle: water); 96 % of control (endpoint: mean survival time, dose: 20.0 mg/kg/injection, schedule: Q01DX009 (ip), vehicle: water).

For the compound `CC(C)(S)CNCCSC(=O)c1ccccc1`, the T/C runs as follows: under setting [6], 103 % of control; under setting [8], 100 % of control; under setting [9], 94 % of control.

In the case of `C[n+]1ccccc1CCc1cccc[n+]1C`, the T/C reads like this: under setting [4], 100 % of control; under setting [5], 100 % of control; under setting [7], 104 % of control.

For `CCOCCNCc1ccc(Cl)cc1Cl`, the T/C is 91 % of control under setting [10] and 94 % of control under setting [11].

As to `O=C(c1ccc(-c2ccccc2)cc1)C1(Br)CCCCC1`, the T/C under setting [6] was 102 % of control; the T/C under setting [10] is 101 % of control; the T/C under setting [8] is 96 % of control; the T/C under setting [11] is 102 % of control; the T/C under setting [9] is 97 % of control; the T/C (endpoint: mean survival time, dose: 400.0 mg/kg/injection, schedule: Q04DX003 (ip), vehicle: saline with Tween-80) is 98 % of control.

In the case of `N=c1ccn(C2OC(CO)C(O)C2O)c(=O)n1O` (centres undefined), the T/C is 156 % of control (endpoint: mean survival time, dose: 16.0 mg/kg/injection, schedule: Q01DX008 (ip), vehicle: saline); 110 % of control (endpoint: mean survival time, dose: 16.0 mg/kg/injection, schedule: Q01DX008 (oral), vehicle: saline); 161 % of control (endpoint: mean survival time, dose: 32.0 mg/kg/injection, schedule: Q01DX008 (ip), vehicle: saline); 170 % of control (endpoint: mean survival time, dose: 64.0 mg/kg/injection, schedule: Q01DX008 (ip), vehicle: saline); 101 % of control (endpoint: mean survival time, dose: 128.0 mg/kg/injection, schedule: Q01DX001 (ip), vehicle: saline); 96 % of control (endpoint: mean survival time, dose: 128.0 mg/kg/injection, schedule: Q01DX001 (oral), vehicle: saline). Further, the T/C reads like this: (endpoint: mean survival time, dose: 128.0 mg/kg/injection, schedule: Q01DX008 (ip), vehicle: saline) 176 % of control; (endpoint: mean survival time, dose: 128.0 mg/kg/injection, schedule: Q01DX008 (oral), vehicle: saline) 156 % of control; (endpoint: mean survival time, dose: 128.0 mg/kg/injection, schedule: Q01DX009 (ip), vehicle: saline) 206 % of control; (endpoint: mean survival time, dose: 128.0 mg/kg/injection, schedule: Q04DX003 (oral), vehicle: saline) 103 % of control; (endpoint: mean survival time, dose: 256.0 mg/kg/injection, schedule: Q01DX001 (ip), vehicle: saline) 102 % of control; (endpoint: mean survival time, dose: 256.0 mg/kg/injection, schedule: Q01DX001 (oral), vehicle: saline) 100 % of control. Further, the T/C (endpoint: mean survival time, dose: 256.0 mg/kg/injection, schedule: Q01DX009 (ip), vehicle: saline) is 214 % of control; the T/C (endpoint: mean survival time, dose: 256.0 mg/kg/injection, schedule: Q04DX003 (oral), vehicle: saline) was 110 % of control; the T/C (endpoint: mean survival time, dose: 512.0 mg/kg/injection, schedule: Q01DX001 (ip), vehicle: saline) is 111 % of control; the T/C (endpoint: mean survival time, dose: 512.0 mg/kg/injection, schedule: Q01DX001 (oral), vehicle: saline) was 103 % of control; the T/C (endpoint: mean survival time, dose: 512.0 mg/kg/injection, schedule: Q01DX009 (ip), vehicle: saline) was 120 % of control; the T/C (endpoint: mean survival time, dose: 512.0 mg/kg/injection, schedule: Q01DX009 (oral), vehicle: saline) was 167 % of control. Moreover, the T/C is, setting by setting: (endpoint: mean survival time, dose: 512.0 mg/kg/injection, schedule: Q04DX003 (ip), vehicle: saline) 153 % of control; (endpoint: mean survival time, dose: 1024.0 mg/kg/injection, schedule: Q01DX001 (ip), vehicle: saline) 108 % of control; (endpoint: mean survival time, dose: 1024.0 mg/kg/injection, schedule: Q01DX001 (oral), vehicle: saline) 122 % of control; (endpoint: mean survival time, dose: 1024.0 mg/kg/injection, schedule: Q01DX009 (ip), vehicle: saline) 116 % of control; (endpoint: mean survival time, dose: 1024.0 mg/kg/injection, schedule: Q01DX009 (oral), vehicle: saline) 210 % of control; (endpoint: mean survival time, dose: 1024.0 mg/kg/injection, schedule: Q04DX003 (ip), vehicle: saline) 155 % of control. For the same compound, under “endpoint: mean survival time, dose: 1024.0 mg/kg/injection, schedule: Q04DX003 (oral), vehicle: saline”, the T/C was 155 % of control.
